Experimental data as given in ChEMBL document CHEMBL1649134, “Occurrence of efflux mechanism and cephalosporinase variant in a population of Enterobacter aerogenes and Klebsiella pneumoniae isolates producing extended-spectrum beta-lactamases” (2009).
Converted amounts (≈) assume the structure as drawn. The source made the active and inactive calls. No cut-off for these calls is given here. Peptide text beside a SMILES is read from it. * marks the point of attachment. βNA = c1ccc2cc(N*)ccc2c1

What was measured:
Klebsiella aerogenes [1] = experiment: Antimicrobial activity against multidrug resistant Enterobacter aerogenes isolate 18 by broth dilution method; format: functional
Escherichia coli [2] = experiment: microbe, parasite or virus in culture; conditions: DH5[alpha]
Description: Antimicrobial activity against multidrug resistant Escherichia coli DH5[alpha] by broth dilution method

Klebsiella aerogenes [3] = experiment: Antimicrobial activity against multidrug resistant Enterobacter aerogenes ATCC 15038 by broth dilution method; format: functional
Klebsiella aerogenes [4] = experiment: Antimicrobial activity against multidrug resistant Enterobacter aerogenes isolate 8 by broth dilution method; format: functional
Klebsiella aerogenes [5] = experiment: Antimicrobial activity against multidrug resistant Enterobacter aerogenes isolate 19 by broth dilution method; format: functional
Klebsiella aerogenes [6] = experiment: Antimicrobial activity against multidrug resistant Enterobacter aerogenes isolate 15 by broth dilution method; format: functional
Escherichia coli [7] = experiment: microbe, parasite or virus in culture; conditions: DH5[alpha]; remark: listed apart in the source
Description: Antimicrobial activity against multidrug resistant Escherichia coli DH5[alpha] harboring pACM204 plasmid by broth dilution method

Klebsiella aerogenes [8] = experiment: Antimicrobial activity against multidrug resistant Enterobacter aerogenes isolate 3 by broth dilution method; format: functional
Klebsiella pneumoniae [9] = experiment: Antimicrobial activity against multidrug resistant Klebsiella pneumoniae isolate 16 by broth dilution method; format: functional
Klebsiella aerogenes [10] = experiment: Antimicrobial activity against multidrug resistant Enterobacter aerogenes isolate 5 by broth dilution method; format: functional
Klebsiella pneumoniae [11] = experiment: Antimicrobial activity against multidrug resistant Klebsiella pneumoniae isolate 12 by broth dilution method; format: functional
Klebsiella aerogenes [12] = experiment: Antimicrobial activity against multidrug resistant Enterobacter aerogenes isolate 2 by broth dilution method; format: functional
Klebsiella aerogenes [13] = experiment: Antimicrobial activity against multidrug resistant Enterobacter aerogenes isolate 1 by broth dilution method; format: functional
Klebsiella pneumoniae [14] = experiment: Antimicrobial activity against multidrug resistant Klebsiella pneumoniae isolate 10 by broth dilution method; format: functional
Klebsiella aerogenes [15] = experiment: Antimicrobial activity against multidrug resistant Enterobacter aerogenes isolate 23 by broth dilution method; format: functional
Escherichia coli [16] = experiment: microbe, parasite or virus in culture; conditions: ATCC 35218
Description: Antimicrobial activity against multidrug resistant Escherichia coli ATCC 35218 harboring pDrive plasmid by broth dilution method

Klebsiella aerogenes [17] = experiment: Antimicrobial activity against multidrug resistant Enterobacter aerogenes isolate 6 by broth dilution method; format: functional
Klebsiella aerogenes [18] = experiment: Antimicrobial activity against multidrug resistant Enterobacter aerogenes isolate 20 by broth dilution method; format: functional
Klebsiella pneumoniae [19] = experiment: Antimicrobial activity against multidrug resistant Klebsiella pneumoniae isolate 3 by broth dilution method; format: functional
Klebsiella aerogenes [20] = experiment: Antimicrobial activity against multidrug resistant Enterobacter aerogenes isolate 24 by broth dilution method; format: functional
Klebsiella pneumoniae [21] = experiment: Antimicrobial activity against multidrug resistant Klebsiella pneumoniae isolate 8 by broth dilution method; format: functional
Klebsiella pneumoniae [22] = experiment: Antimicrobial activity against multidrug resistant Klebsiella pneumoniae isolate 1 by broth dilution method; format: functional
Klebsiella pneumoniae [23] = experiment: Antimicrobial activity against multidrug resistant Klebsiella pneumoniae isolate 6 by broth dilution method; format: functional
Klebsiella aerogenes [24] = experiment: Antimicrobial activity against multidrug resistant Enterobacter aerogenes isolate 10 by broth dilution method; format: functional
Klebsiella pneumoniae [25] = experiment: Antimicrobial activity against multidrug resistant Klebsiella pneumoniae isolate 15 by broth dilution method; format: functional
Klebsiella aerogenes [26] = experiment: Antimicrobial activity against multidrug resistant Enterobacter aerogenes isolate 26 by broth dilution method; format: functional
Escherichia coli [27] = experiment: microbe, parasite or virus in culture; conditions: DH5[alpha]; remark: listed apart in the source
Description: Antimicrobial activity against multidrug resistant Escherichia coli DH5[alpha] harboring pDrive plasmid by broth dilution method

Klebsiella pneumoniae [28] = experiment: Antimicrobial activity against multidrug resistant Klebsiella pneumoniae isolate 2 by broth dilution method; format: functional
Klebsiella aerogenes [29] = experiment: Antimicrobial activity against multidrug resistant Enterobacter aerogenes isolate 4 by broth dilution method; format: functional
Klebsiella aerogenes [30] = experiment: Antimicrobial activity against multidrug resistant Enterobacter aerogenes isolate 22 by broth dilution method; format: functional
Escherichia coli [31] = experiment: microbe, parasite or virus in culture; conditions: DH5[alpha]; remark: listed apart in the source
Description: Antimicrobial activity against multidrug resistant Escherichia coli DH5[alpha] harboring pDrive plasmid expressing ampC gene by broth dilution method

Klebsiella aerogenes [32] = experiment: Antimicrobial activity against multidrug resistant Enterobacter aerogenes isolate 27 by broth dilution method; format: functional
Klebsiella aerogenes [33] = experiment: Antimicrobial activity against multidrug resistant Enterobacter aerogenes isolate 11 by broth dilution method; format: functional
Klebsiella aerogenes [34] = experiment: Antimicrobial activity against multidrug resistant Enterobacter aerogenes isolate 14 by broth dilution method; format: functional
Klebsiella aerogenes [35] = experiment: Antimicrobial activity against multidrug resistant Enterobacter aerogenes isolate 25 by broth dilution method; format: functional
Klebsiella aerogenes [36] = experiment: Antimicrobial activity against multidrug resistant Enterobacter aerogenes ATCC 15038 harboring pDrive plasmid expressing ampC gene by broth dilution method; format: functional
Klebsiella pneumoniae [37] = experiment: Antimicrobial activity against multidrug resistant Klebsiella pneumoniae isolate 4 by broth dilution method; format: functional
Klebsiella aerogenes [38] = experiment: Antimicrobial activity against multidrug resistant Enterobacter aerogenes isolate 13 by broth dilution method; format: functional
Klebsiella aerogenes [39] = experiment: Antimicrobial activity against multidrug resistant Enterobacter aerogenes ATCC 15038 harboring pDrive plasmid by broth dilution method; format: functional
Klebsiella aerogenes [40] = experiment: Antimicrobial activity against multidrug resistant Enterobacter aerogenes isolate 9 by broth dilution method; format: functional
Klebsiella aerogenes [41] = experiment: Antimicrobial activity against multidrug resistant Enterobacter aerogenes isolate 21 by broth dilution method; format: functional
Escherichia coli [42] = experiment: Antimicrobial activity against multidrug resistant Escherichia coli ATCC 35218 by broth dilution method; format: functional
Klebsiella pneumoniae [43] = experiment: Antimicrobial activity against multidrug resistant Klebsiella pneumoniae isolate 5 by broth dilution method; format: functional
Klebsiella pneumoniae [44] = experiment: Antimicrobial activity against multidrug resistant Klebsiella pneumoniae isolate 11 by broth dilution method; format: functional
Klebsiella aerogenes [45] = experiment: Antimicrobial activity against multidrug resistant Enterobacter aerogenes isolate 16 by broth dilution method; format: functional
Klebsiella aerogenes [46] = experiment: Antimicrobial activity against multidrug resistant Enterobacter aerogenes ATCC 15038 harboring pACM204 plasmid by broth dilution method; format: functional
Klebsiella aerogenes [47] = experiment: Antimicrobial activity against multidrug resistant Enterobacter aerogenes isolate 17 by broth dilution method; format: functional
Klebsiella pneumoniae [48] = experiment: Antimicrobial activity against multidrug resistant Klebsiella pneumoniae isolate 9 by broth dilution method; format: functional
Escherichia coli [49] = experiment: microbe, parasite or virus in culture; conditions: ATCC 35218; remark: listed apart in the source
Description: Antimicrobial activity against multidrug resistant Escherichia coli ATCC 35218 harboring pDrive plasmid expressing ampC gene by broth dilution method

Klebsiella pneumoniae [50] = experiment: Antimicrobial activity against multidrug resistant Klebsiella pneumoniae ATCC 11296 by broth dilution method; format: functional
Klebsiella aerogenes [51] = experiment: Antimicrobial activity against multidrug resistant Enterobacter aerogenes isolate 12 by broth dilution method; format: functional
Klebsiella aerogenes [52] = experiment: Antimicrobial activity against multidrug resistant Enterobacter aerogenes isolate 7 by broth dilution method; format: functional
Klebsiella pneumoniae [53] = experiment: Antimicrobial activity against multidrug resistant Klebsiella pneumoniae isolate 13 by broth dilution method; format: functional
Klebsiella pneumoniae [54] = experiment: Antimicrobial activity against multidrug resistant Klebsiella pneumoniae isolate 7 by broth dilution method; format: functional
Klebsiella pneumoniae [55] = experiment: Inhibition of multidrug resistance efflux pump in Klebsiella pneumoniae isolate 14 assessed as increase in intracellular [14C]chloramphenicol accumulation relative to untreated control
Klebsiella aerogenes [56] = experiment: Inhibition of multidrug resistance efflux pump in Enterobacter aerogenes isolate 17 assessed as increase in intracellular [14C]chloramphenicol accumulation relative to untreated control; format: cell-based
Klebsiella aerogenes [57] = experiment: Inhibition of multidrug resistance efflux pump in Enterobacter aerogenes isolate 6 assessed as increase in intracellular [14C]chloramphenicol accumulation relative to untreated control; format: cell-based
Klebsiella pneumoniae [58] = experiment: Inhibition of multidrug resistance efflux pump in Klebsiella pneumoniae isolate 13 assessed as increase in intracellular [14C]chloramphenicol accumulation relative to untreated control
Klebsiella aerogenes [59] = experiment: Inhibition of multidrug resistance efflux pump in Enterobacter aerogenes isolate 13 assessed as increase in intracellular [14C]chloramphenicol accumulation relative to untreated control; format: cell-based

Compound: CO/N=C(\C(=O)N[C@@H]1C(=O)N2C(C(=O)[O-])=C(C[N+]3(C)CCCC3)CS[C@H]12)c1csc(N)n1
- MIC (Klebsiella aerogenes [1]): 32 µg/mL (≈ 66.6 µM)
- MIC (Escherichia coli [2]): 0.125 µg/mL (≈ 0.26 µM)
- MIC (Klebsiella aerogenes [3]): 0.03 µg/mL (≈ 0.0624 µM)
- MIC (Klebsiella aerogenes [4]): 64 µg/mL (≈ 133 µM)
- MIC (Klebsiella aerogenes [5]): 64 µg/mL (≈ 133 µM)
- MIC (Klebsiella aerogenes [6]): 16 µg/mL (≈ 33.3 µM)
- MIC (Escherichia coli [7]): 0.25 µg/mL (≈ 0.52 µM)
- MIC (Klebsiella aerogenes [8]): 16 µg/mL (≈ 33.3 µM)
- MIC (Klebsiella pneumoniae [9]): 64 µg/mL (≈ 133 µM)
- MIC (Klebsiella aerogenes [10]): 64 µg/mL (≈ 133 µM)
- MIC (Klebsiella pneumoniae [11]): 16 µg/mL (≈ 33.3 µM)
- MIC (Klebsiella aerogenes [12]): 32 µg/mL (≈ 66.6 µM)
- MIC (Klebsiella aerogenes [13]): 32 µg/mL (≈ 66.6 µM)
- MIC (Klebsiella pneumoniae [14]): 64 µg/mL (≈ 133 µM)
- MIC (Klebsiella aerogenes [15]): 64 µg/mL (≈ 133 µM)
- MIC (Escherichia coli [16]): 0.5 µg/mL (≈ 1.04 µM)
- MIC (Klebsiella aerogenes [17]): 4 µg/mL (≈ 8.32 µM)
- MIC (Klebsiella aerogenes [18]): 64 µg/mL (≈ 133 µM)
- MIC (Klebsiella pneumoniae [19]): 64 µg/mL (≈ 133 µM)
- MIC (Klebsiella aerogenes [20]): 128 µg/mL (≈ 266 µM)
- MIC (Klebsiella pneumoniae [21]): 64 µg/mL (≈ 133 µM)
- MIC (Klebsiella pneumoniae [22]): 64 µg/mL (≈ 133 µM)
- MIC (Klebsiella pneumoniae [23]): 16 µg/mL (≈ 33.3 µM)
- MIC (Klebsiella aerogenes [24]): 16 µg/mL (≈ 33.3 µM)
- MIC (Klebsiella pneumoniae [25]): 32 µg/mL (≈ 66.6 µM)
- MIC (Klebsiella aerogenes [26]): 2 µg/mL (≈ 4.16 µM)
- MIC (Escherichia coli [27]): 0.5 µg/mL (≈ 1.04 µM)
- MIC (Klebsiella pneumoniae [28]): 64 µg/mL (≈ 133 µM)
- MIC (Klebsiella aerogenes [29]): 32 µg/mL (≈ 66.6 µM)
- MIC (Klebsiella aerogenes [30]): 64 µg/mL (≈ 133 µM)
- MIC (Escherichia coli [31]): 32 µg/mL (≈ 66.6 µM)
- MIC (Klebsiella aerogenes [32]): 128 µg/mL (≈ 266 µM)
- MIC (Klebsiella aerogenes [33]): 64 µg/mL (≈ 133 µM)
- MIC (Klebsiella aerogenes [34]): 64 µg/mL (≈ 133 µM)
- MIC (Klebsiella aerogenes [35]): 64 µg/mL (≈ 133 µM)
- MIC (Klebsiella aerogenes [36]): 32 µg/mL (≈ 66.6 µM)
- MIC (Klebsiella pneumoniae [37]): 64 µg/mL (≈ 133 µM)
- MIC (Klebsiella aerogenes [38]): 64 µg/mL (≈ 133 µM)
- MIC (Klebsiella aerogenes [39]): 0.25 µg/mL (≈ 0.52 µM)
- MIC (Klebsiella aerogenes [40]): 32 µg/mL (≈ 66.6 µM)
- MIC (Klebsiella aerogenes [41]): 128 µg/mL (≈ 266 µM)
- MIC (Escherichia coli [42]): 0.03 µg/mL (≈ 0.0624 µM)
- MIC (Klebsiella pneumoniae [43]): 64 µg/mL (≈ 133 µM)
- MIC (Klebsiella pneumoniae [44]): 64 µg/mL (≈ 133 µM)
- MIC (Klebsiella aerogenes [45]): 64 µg/mL (≈ 133 µM)
- MIC (Klebsiella aerogenes [46]): 0.25 µg/mL (≈ 0.52 µM)
- MIC (Klebsiella aerogenes [47]): 64 µg/mL (≈ 133 µM)
- MIC (Klebsiella pneumoniae [48]): 64 µg/mL (≈ 133 µM)
- MIC (Escherichia coli [49]): 32 µg/mL (≈ 66.6 µM)
- MIC (Klebsiella pneumoniae [50]): 0.125 µg/mL (≈ 0.26 µM)
- MIC (Klebsiella aerogenes [51]): 128 µg/mL (≈ 266 µM)
- MIC (Klebsiella aerogenes [52]): 64 µg/mL (≈ 133 µM)
- MIC (Klebsiella pneumoniae [53]): 2 µg/mL (≈ 4.16 µM)
- MIC (Klebsiella pneumoniae [54]): 64 µg/mL (≈ 133 µM)

Compound: N=C(N)NCCC[C@H](NC(=O)[C@@H](N)Cc1ccccc1)C(=O)Nc1ccc2ccccc2c1 (H-Phe-Arg-βNA)
- inhibition (Klebsiella pneumoniae [55]): Active
- inhibition (Klebsiella aerogenes [56]): Active
- inhibition (Klebsiella aerogenes [57]): Active
- inhibition (Klebsiella pneumoniae [58]): Active
- inhibition (Klebsiella aerogenes [59]): Active

Compound: N#CC(C#N)=NNc1cccc(Cl)c1 [CARBONYL CYANIDE M-CHLOROPHENYLHYDRAZONE]
- fold change (FC) (Klebsiella pneumoniae [55]): 2
- fold change (FC) (Klebsiella aerogenes [56]): 2
- fold change (FC) (Klebsiella aerogenes [57]): 2
- fold change (FC) (Klebsiella pneumoniae [58]): 2
- fold change (FC) (Klebsiella aerogenes [59]): 2
